Patent US5935987A, “Transdermal delivery of 3,4-diarylchromans” (priority 1996, dated 1999)
Several values for one entry are separate records, joined by “and”; a condition that tells them apart may be missing. Equal values may be shown once. Where a name gives a salt, the structure may show the parent alone. Read-outs that look alike come from different tables or passages of the source.

Key:
[1] = racemate; cited from earlier work
[2] = background statement, cited from earlier work
[3] = background statement; cited from earlier work
[4] = assay type: in vitro ADME, human
Method: The effect of selected formulations on levormeloxifene fumarate permeation through human skin in vitro is illustrated in the following way:
Franz glass diffusion cells were used (Franz, T. J.: Curr. Probl. Dermatol., 1978: 7; 58-68).
Experiments were performed on abdominal or breast skin obtained after surgery and kept at -20° C. for not more than ten months. After initial thawing the skin was squeezed between a metal and a glass plate, and after refreezing the skin was dermatomed to a thickness of 0.5 mm.
The human skin membrane was enclosed in the glass chambers with ground faces (diffusing area 0.64 cm^2). A clamp was used to keep the chambers together. […]
After the skin was allowed to equilibrate at 32° C. for one hour, the capacitance was measured with a Lutron DM 6023 Capacitance meter. […]
The donor solutions were made of selected vehicles which were saturated with levormeloxifene fumarate, cf. […] The concentrations of levormeloxifene fumarate in the donor solutions were determined previously by a HPLC method. […]
At appropriate intervals, samples were taken from the receptor phase and replaced by fresh receptor solution in order to keep sink-conditions. The amount of levormeloxifene fumarate in the receptor solution was determined using liquid scintillatory counting. […]
The mean value and the standard deviation were calculated of the flux J of the replicates. […]

[5] = Concentration of levormeloxifene fumarate in saturated donor solutions (HPLC); assay type: physicochemical; details: stirred 24 hours, room temperature; for solubility thermodynamic at 24 h: read-out: Conc. unmarked (donor phase saturated)
Method: The donor solutions were made of selected vehicles which were saturated with levormeloxifene fumarate, cf. Table 1. To prepare the donor solutions, levormeloxifene fumarate was added to the vehicles, and after stirring at room temperature for 24 hours, the donor solution was saturated with levormeloxifene fumarate and filtered through a Millipore filter 0.22 μm. Thereafter ^14 C-levormeloxifene was added to 1.00 ml of the donor solution to give a final concentration of ^14 C-levormeloxifene at 3 mg/ml (1,3 mCi/mi). Thereafter the donor solution was applied on the epidermal side of the skin, and the experiment was performed with occlusion. The concentrations of levormeloxifene fumarate in the donor solutions were determined previously by a HPLC method.

## COc1ccc2c(c1)OC(C)(C)[C@@H](c1ccccc1)[C@@H]2c1ccc(OCCN2CCCC2)cc1 (relative stereo) [Centchroman]
[1]
  cholesterol lowering: potent cholesterol lowering pharmaceutical agent expressed by a significant decrease of the serum concentrations

## COc1ccc2c(c1)OC(C)(C)[C@@H](c1ccccc1)[C@@H]2c1ccc(OCCN2CCCC2)cc1 [hydrochloride salt]
[2]
  behaviour in aqueous suspension: forms a solid gel in aqueous suspension
  solubility in water: quite heavy soluble in water
[3]
  hygroscopicity: hygroscopic

## COc1ccc2c(c1)OC(C)(C)[C@@H](c1ccccc1)[C@@H]2c1ccc(OCCN2CCCC2)cc1 [levormeloxifene fumarate, (-)-3R,4R-trans-7-methoxy-2,2-dimethyl-3-phenyl-4-{4-[2-(pyrrolidin-1-yl)ethoxy]phenyl}chromane, hydrogen fumarate]
[4]
  Dosage per day: 0.56 mg
[4]; pH 4
  Flux ± S.D.: 0.495 ± 0.125 mg × cm^-2 × h^-1
[5]; acetic acid 0.05m (b4), pH 4, vehicle B4 (acetic acid 0.05M, pH 4)
  solubility thermodynamic at 24 h: 325 µg/mL
[5]; b4 + 2% 2-pyrrolidon, vehicle B4 + 2% 2-pyrrolidon
  solubility thermodynamic at 24 h: 420 µg/mL
[5]; b4 + 20% ethanol, organic solvent or mixture, vehicle B4 + 20% ethanol
  solubility thermodynamic at 24 h: 1400 µg/mL
[5]; b4 + 30% ethanol, organic solvent or mixture, vehicle B4 + 30% ethanol
  solubility thermodynamic at 24 h: 3100 µg/mL
[5]; pg + 10% oleic acid, organic solvent or mixture, vehicle PG + 10% oleic acid
  solubility thermodynamic at 24 h: 116000 µg/mL
[5]; vehicle B4 (acetic acid 0.05M, pH 4), 1440 min
  Conc. unmarked (donor phase saturated): 320 µg/mL and 325 µg/mL

## COc1ccc2c(c1)OC(C)(C)[C@@H](c1ccccc1)[C@@H]2c1ccc(OCCN2CCCC2)cc1 [levormeloxifene, (-)-3R,4R-trans-7-methoxy-2,2-dimethyl-3-phenyl-4-{4-[2-(pyrrolidin-1-yl)ethoxy]phenyl}chromane]
[2]; listed as free base
  solubility in water: very poor solubility in water
